Measurements: ChEMBL document CHEMBL1153708, “Synthesis and evaluation of a thio analogue of duocarmycin SA” (Bioorg Med Chem Lett, 2009)
The source made the active and inactive calls. No cut-off for these calls is given here.

System: Nucleic Acid
Assay: Induction of w794 DNA alkylation at 10 uM after 24 hrs by PAGE
Assay type: nucleic-acid assay

Question: With `COC(=O)c1cc2c([nH]1)C(=O)C=C1N(C(=O)c3cc4cc(OC)c(OC)c(OC)c4[nH]3)C[C@H]3C[C@]123` as the compound, how does the Activity read?
Answer: Active

Question: `COC(=O)c1cc2c(s1)C(=O)C=C1N(C(=O)c3cc4cc(OC)c(OC)c(OC)c4[nH]3)C[C@@H]3C[C@@]123` was tested. Which Activity did it give?
Answer: Active

Question: Which Activity does the source give for `COC(=O)c1cc2c([nH]1)C(=O)C=C1N(C(=O)c3cc4cc(OC)c(OC)c(OC)c4[nH]3)C[C@@H]3C[C@@]123` here?
Answer: Active

System: L1210
Assay: Cytotoxicity against mouse L1210 cells
Assay type: functional, cell-based

Question: For `COC(=O)c1cc2c(s1)C(=O)C=C1N(C(=O)c3cc4cc(OC)c(OC)c(OC)c4[nH]3)C[C@H]3C[C@]123`, which IC50 is on record?
Answer: 0.007 nM

Question: `COC(=O)c1cc2c(s1)C(=O)C=C1N(C(=O)OC(C)(C)C)C[C@H]3C[C@]123` was tested. Which IC50 did it give?
Answer: 6 nM

Question: How did the IC50 turn out when `COC(=O)c1cc2c(s1)C(=O)C=C1N(C(=O)c3cc4cc(OC)c(OC)c(OC)c4[nH]3)C[C@@H]3C[C@@]123` was run?
Answer: 0.06 nM

Question: Which IC50 does the source give for `COC(=O)c1cc2c(s1)C(=O)C=C1N(C(=O)OC(C)(C)C)C[C@@H]3C[C@@]123` here?
Answer: 55 nM

Question: `COC(=O)c1cc2c([nH]1)C(=O)C=C1N(C(=O)OC(C)(C)C)C[C@@H]3C[C@@]123` was tested. Which IC50 did it give?
Answer: 60 nM
